{"source": "patent US8586108B2", "about": "“Extracts of Chenopodium ambrosioides L., the compositions comprising said extracts, the preparing process and application thereof” (Tasly Pharmaceutical Group Co., Ltd, priority 2005, dated 2013)", "key": {"[1]": {"test_system": "gastric ulcers of pyloric ligation type", "assay": "Effect on gastric ulcers of pyloric ligation type in rats", "type": "in vivo, Wistar rats", "settings": "200 mg/kg i.g. once per day for 3 days; 5 grades by Okabe's method; X ± SD, n = 10", "method": "Eighty Wistar rats weighing about 160 g were selected in this experiment, male and female in half, and were randomly divided into 8 groups, 10 rats per group. Drugs were continually administered i.g. with the dosage listed in Table 3 for 3 days, once per day, while the model control group was administered i.g. with the same volume of vegetable oil. The animals were anaesthetized by ether after 2 hours of the last administration (the rats were fasted for 48 hours before administration), and their abdomens were shaved and sterilized. A small incision was cut below the xiphoid. Their stomach was gently pulled out, and the stomach was then put back to the abdomen after pyloric ligation, and the incision was sewed up. After operation, the rats were abstained from food and water for 6 hours and executed after anaesthesia. The abdomen was cut open, the cardia was ligated, and the whole stomach was taken out and cut open along the greater curvature of stomach. After rinsing the content of stomach with saline, the stomach was fixed with 1% formaldehyde for 10 min, and then the diameters of the ulcer points were measured using precise calipers. Degree of the ulcer was expressed by total area of all ulcer points of each rat and was classified into 5 grades according to Okabe's method as index of ulcer."}, "[2]": {"test_system": "acetic acid-cautery type gastric ulcer", "assay": "Effect on gastric ulcer of rats induced by acetic acid cautery", "type": "in vivo, Wistar rats", "settings": "200 mg/kg i.g. once per day for 13 days; X ± SD, n = 10", "method": "Eighty Wistar rats weighing between 200-220 g were selected in this experiment, male and female in half, and were randomly divided into 8 groups, 10 rats per group. Drugs were continually administered i.g. with the dosage listed in Table 2 for 13 days, once per day, while the model control group was administered i.g. with the same volume of vegetable oil. The model was established after 2 hours of the third administration. The rats were fasted for 24 hours before model-establishing and anaesthetized by ether, their abdomens were shaved and sterilized. A small incision was cut along the midline of the xiphoid. The stomach was gently pulled out, 10 μL 40% acetic acid was injected underneath the stomach chorion near pyloric gland areas. The stomach was then put back to the abdomen, and the incision was sewed up. Drugs were administered after operation. The rats were fasted for 24 hours after the last administration, and the animals were executed after being anaesthetized by urathane. […] After rinsing the content of stomach with saline, the stomach was fixed with 1% formaldehyde for 10 min, and then the diameters of ulcer points were measured using precise calipers and the ulcer areas were calculated. Ink was injected with a micro-syringe until its level reached the surface of gastric mucous membrane, and the volume of the injected ink was recorded. […]"}}, "note": "Marks after values point to notes of the source that are not given here."}
{"smiles": "CNC(=C[N+](=O)[O-])NCCSCc1ccc(CN(C)C)o1", "note": "[Ranitidine]", "values": [{"measurement": "Index of Ulcer", "setting": "[1]", "value": "0.8 ± 0.6"}, {"measurement": "Ulcer area", "setting": "[2]", "value": "8.08 ± 5.72** mm^2"}, {"measurement": "Volumes of injected ink in ulcer region", "setting": "[2]", "value": "2.85 ± 2.63", "unit": "µL"}]}
